Reference: patent US11377453B2, “Crystal of compound having JAK-inhibiting activity” (NIPPON SHINYAKU CO., LTD., priority 2016, dated 2022)
Structures can show the parent of a compound that is named as a salt.

What was measured:
Assay type in all cases: biochemical
JAK1 = target: T1, JAK1 (Homo sapiens, UniProt P23458); assay: JAK tyrosine kinase inhibitory activity in the presence of 1 mM ATP (ELISA), JAK1
T1 construct: purchased Carna Biosciences, Inc
Procedure: (§1) The test compound was dissolved in dimethyl sulfoxide (DMSO) to 10 mM and further diluted with DMSO to the concentrations of 1000, 100, 10, 1, 0.1 and 0.01 μM, respectively. For JAK1, these solutions of the test compound at the six concentrations 10 mM, 1000 μM, 100 μM, 10 μM, 1 μM and 0.1 μM were used. For JAK2 and JAK3, these solutions of the test compound at the six concentrations 1000 μM, 100 μM, 10 μM, 1 μM, 0.1 μM and 0.01 μM were used. The test compound solutions were diluted further to 20-fold with an assay buffer to obtain a sample solution. 15 mM Tris-HCl (pH7.5), 0.01 (v/v) % Tween-20 and 1 mM dithiothreitol were used as an assay buffer. DMSO was diluted to 20-fold with the assay buffer and was used as a negative control.
(§2) The activity was determined by ELISA method. Each of the sample solutions was added to a streptavidin coated 96-well plate (DELFIA Strip Plate 8×12 well, PerkinElmer) at 10 μL/well (n=2). […] Finally, JAK tyrosine kinase (Carna Biosciences, Inc.), which was previously diluted with the assay buffer to 7.5 nM for JAK1 and 0.75 nM for JAK2 and JAK3, was added to the plate at 20 μL/well, and the plate was incubated at 30° C. for 1 h. The plate was washed four times with buffer (50 mM Tris-HCl (pH 7.5), 150 mM NaCl, 0.02 (v/v) % Tween-20). A blocking buffer (0.1% Bovine Serum Albumin, 50 mM Tris-HCl (pH 7.5), 150 mM NaCl, 0.02 (v/v) % Tween-20) was added to the plate at 150 μL/well, and the plate was blocked at 30° C. for 1 h. The blocking buffer was removed, and a horse radish peroxidase-labeled anti-phosphorylated tyrosine antibody (BD Biosciences, Inc.) (diluted to 10000-fold with the blocking buffer) was added to the plate at 100 μL/well, and the plate was incubated at 30° C. for 30 min. The plate was washed with the washing buffer four times, and 3,3′,5,5′-tetramethylbenzidine solution (Nacalai Tesque) was added to the plate at 100 μL/well to develop the color for 10 minutes. To the plate was added 0.1 M sulfuric acid at 100 μL/well to stop the reaction. The absorbance at 450 nm was measured using a microplate reader (BIO-RAD).

JAK2 = target: T2, JAK2 (Homo sapiens, UniProt O60674); assay: JAK tyrosine kinase inhibitory activity in the presence of 1 mM ATP (ELISA), JAK2
T2 construct: purchased Carna Biosciences, Inc
T2 sequence (O60674 whole entry): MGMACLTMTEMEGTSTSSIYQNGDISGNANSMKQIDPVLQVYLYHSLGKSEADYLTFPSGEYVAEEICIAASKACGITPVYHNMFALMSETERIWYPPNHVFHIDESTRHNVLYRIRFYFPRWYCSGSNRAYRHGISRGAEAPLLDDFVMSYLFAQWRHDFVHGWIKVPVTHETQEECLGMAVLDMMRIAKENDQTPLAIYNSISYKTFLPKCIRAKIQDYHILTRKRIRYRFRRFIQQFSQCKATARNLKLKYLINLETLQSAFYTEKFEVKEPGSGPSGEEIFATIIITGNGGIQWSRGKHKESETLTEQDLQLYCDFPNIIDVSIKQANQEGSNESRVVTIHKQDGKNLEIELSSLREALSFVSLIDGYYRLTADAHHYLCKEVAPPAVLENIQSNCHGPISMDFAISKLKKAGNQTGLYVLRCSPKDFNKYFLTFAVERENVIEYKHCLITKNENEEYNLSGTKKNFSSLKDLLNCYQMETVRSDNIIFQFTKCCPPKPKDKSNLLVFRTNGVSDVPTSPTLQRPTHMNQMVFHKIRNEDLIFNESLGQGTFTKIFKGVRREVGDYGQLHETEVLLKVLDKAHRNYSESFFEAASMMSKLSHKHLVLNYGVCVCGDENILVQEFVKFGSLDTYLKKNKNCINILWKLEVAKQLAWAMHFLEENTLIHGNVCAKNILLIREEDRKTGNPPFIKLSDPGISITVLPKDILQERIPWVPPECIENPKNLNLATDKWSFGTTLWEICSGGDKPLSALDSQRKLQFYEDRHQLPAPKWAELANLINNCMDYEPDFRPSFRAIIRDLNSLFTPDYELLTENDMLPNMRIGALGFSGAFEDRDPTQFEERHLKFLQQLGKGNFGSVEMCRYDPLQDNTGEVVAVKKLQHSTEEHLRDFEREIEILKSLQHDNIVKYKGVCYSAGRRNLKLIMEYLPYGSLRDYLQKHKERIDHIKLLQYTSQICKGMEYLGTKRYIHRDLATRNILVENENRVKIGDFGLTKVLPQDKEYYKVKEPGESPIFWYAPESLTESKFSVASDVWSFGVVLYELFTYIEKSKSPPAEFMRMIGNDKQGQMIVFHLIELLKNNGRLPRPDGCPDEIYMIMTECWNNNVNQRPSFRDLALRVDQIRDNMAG
Procedure: as §1, §2

JAK3 = target: T3, JAK3 (Homo sapiens, UniProt P52333); assay: JAK tyrosine kinase inhibitory activity in the presence of 1 mM ATP (ELISA), JAK3
T3 construct: purchased Carna Biosciences, Inc
T3 sequence (P52333 1-1124): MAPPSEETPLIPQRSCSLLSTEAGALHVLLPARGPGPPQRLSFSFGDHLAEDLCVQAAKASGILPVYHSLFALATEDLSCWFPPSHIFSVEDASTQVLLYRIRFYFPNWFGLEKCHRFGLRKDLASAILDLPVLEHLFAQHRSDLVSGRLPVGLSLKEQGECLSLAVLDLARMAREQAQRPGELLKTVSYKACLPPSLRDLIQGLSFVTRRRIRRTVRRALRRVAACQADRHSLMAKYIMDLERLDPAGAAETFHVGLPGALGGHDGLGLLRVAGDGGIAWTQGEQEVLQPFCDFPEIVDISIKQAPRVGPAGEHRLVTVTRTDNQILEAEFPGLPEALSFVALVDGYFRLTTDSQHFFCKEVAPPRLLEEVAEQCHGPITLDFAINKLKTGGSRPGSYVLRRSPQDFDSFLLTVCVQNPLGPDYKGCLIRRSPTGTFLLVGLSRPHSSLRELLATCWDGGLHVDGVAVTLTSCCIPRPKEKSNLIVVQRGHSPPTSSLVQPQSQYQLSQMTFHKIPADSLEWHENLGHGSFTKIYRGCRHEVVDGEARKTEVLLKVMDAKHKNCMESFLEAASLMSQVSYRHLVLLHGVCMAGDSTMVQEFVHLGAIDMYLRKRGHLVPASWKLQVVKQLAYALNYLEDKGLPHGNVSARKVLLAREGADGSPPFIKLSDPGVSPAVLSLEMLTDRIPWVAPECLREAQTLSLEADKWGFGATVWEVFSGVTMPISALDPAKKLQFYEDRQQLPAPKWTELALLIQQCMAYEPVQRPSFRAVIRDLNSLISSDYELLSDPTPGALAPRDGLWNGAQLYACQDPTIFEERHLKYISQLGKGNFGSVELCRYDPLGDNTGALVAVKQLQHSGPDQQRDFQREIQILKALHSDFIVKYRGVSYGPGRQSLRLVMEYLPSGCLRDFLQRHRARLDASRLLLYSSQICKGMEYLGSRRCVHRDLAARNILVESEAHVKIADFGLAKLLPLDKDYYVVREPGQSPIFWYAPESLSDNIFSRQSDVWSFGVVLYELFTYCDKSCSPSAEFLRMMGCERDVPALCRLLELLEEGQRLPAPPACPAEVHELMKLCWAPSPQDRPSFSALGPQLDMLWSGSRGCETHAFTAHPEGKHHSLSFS
Procedure: as §1, §2

T1 sequence (P23458 whole entry): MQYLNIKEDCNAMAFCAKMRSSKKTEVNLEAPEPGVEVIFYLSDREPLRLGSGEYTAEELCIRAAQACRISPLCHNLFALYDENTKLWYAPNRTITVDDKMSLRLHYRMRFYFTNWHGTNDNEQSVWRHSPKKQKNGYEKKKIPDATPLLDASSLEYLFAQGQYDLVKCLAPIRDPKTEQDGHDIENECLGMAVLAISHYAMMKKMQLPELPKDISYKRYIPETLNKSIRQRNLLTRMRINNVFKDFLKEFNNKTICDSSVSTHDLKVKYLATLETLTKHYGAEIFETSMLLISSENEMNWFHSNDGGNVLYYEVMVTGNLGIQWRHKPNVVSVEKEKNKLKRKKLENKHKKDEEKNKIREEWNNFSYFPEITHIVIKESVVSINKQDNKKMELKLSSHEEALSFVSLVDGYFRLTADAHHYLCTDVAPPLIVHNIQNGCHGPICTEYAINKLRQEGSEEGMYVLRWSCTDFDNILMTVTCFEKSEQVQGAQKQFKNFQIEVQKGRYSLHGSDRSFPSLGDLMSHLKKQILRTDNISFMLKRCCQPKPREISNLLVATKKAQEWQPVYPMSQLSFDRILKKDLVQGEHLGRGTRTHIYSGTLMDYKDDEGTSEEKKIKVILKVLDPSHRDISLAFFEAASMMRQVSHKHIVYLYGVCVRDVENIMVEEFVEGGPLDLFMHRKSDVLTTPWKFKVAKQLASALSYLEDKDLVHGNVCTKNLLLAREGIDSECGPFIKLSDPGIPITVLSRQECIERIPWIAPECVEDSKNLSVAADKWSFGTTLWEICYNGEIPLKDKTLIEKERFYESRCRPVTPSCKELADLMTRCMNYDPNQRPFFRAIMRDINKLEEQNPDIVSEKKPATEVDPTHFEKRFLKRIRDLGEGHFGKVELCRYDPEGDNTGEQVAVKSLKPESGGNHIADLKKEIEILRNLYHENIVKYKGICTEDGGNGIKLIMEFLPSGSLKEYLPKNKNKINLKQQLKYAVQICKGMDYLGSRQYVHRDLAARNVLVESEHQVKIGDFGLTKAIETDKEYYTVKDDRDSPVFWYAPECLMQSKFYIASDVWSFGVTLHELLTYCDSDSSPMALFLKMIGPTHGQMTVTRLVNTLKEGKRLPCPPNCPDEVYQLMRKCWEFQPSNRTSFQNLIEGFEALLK

**Q.** What does the source list for `CC[C@H](C)Nc1cc(C(=O)N2CCC(NC(=O)OC)CC2)nc(-c2cnn3ccsc23)n1` [Example 1, Methyl [1-({6-[(2S)-butan-2-ylamino]-2-(pyrazolo [5,1-b][1,3]thiazol-7-yl)pyrimidin-4-yl}carbonyl)piperidin-4-yl]carbamate Tosylate Monohydrate]?
**A.** IC50 (JAK1): 310 nM; IC50 (JAK2): 3700 nM; IC50 (JAK3): 3000 nM

**Q.** Which results are given for `CC[C@@H](C)Nc1cc(C(=O)N2CCC(NC(=O)OC)CC2)nc(-c2cnn3ccsc23)n1` [Example 2, Methyl [1-({6-[(2R)-butan-2-ylamino]-2-(pyrazolo[5,1-b][1,3]thiazol-7-yl)pyrimidin-4-yl}carbonyl)piperidin-4-yl]carbamate Tosylate Monohydrate]?
**A.** IC50 (JAK1): 470 nM; IC50 (JAK2): 5700 nM; IC50 (JAK3): 6000 nM

**Q.** For `COC(=O)NC1CCN(C(=O)c2cc(N[C@@H](C)C3CC3)nc(-c3cnn4ccsc34)n2)CC1` [Example 3, Methyl (1-{[6-{[(1S)-1-cyclopropylethyl]amino}-2-(pyrazolo[5,1-b][1,3]thiazol-7-yl)pyrimidin-4-yl]carbonyl}piperidin-4-yl)carbamate Tosylate Monohydrate], which IC50 (JAK1) is on record?
**A.** 270 nM

**Q.** What about the IC50 (JAK2) of the same compound?
**A.** 2600 nM

**Q.** And the IC50 (JAK3)?
**A.** 1900 nM
